{
  "source": "paper PMC9414676",
  "about": "“Experimental Studies Indicate That ST-2223, the Antagonist of Histamine H3 and Dopamine D2/D3 Receptors, Restores Social Deficits and Neurotransmission Dysregulation in Mouse Model of Autism” (Pharmaceuticals, 2022)",
  "key": {"hH3R": {"target": "T1, hH3R (Homo sapiens, UniProt Q9Y5N1)", "T1 construct": "expressed in transfected cells", "T1 sequence (Q9Y5N1 whole entry)": "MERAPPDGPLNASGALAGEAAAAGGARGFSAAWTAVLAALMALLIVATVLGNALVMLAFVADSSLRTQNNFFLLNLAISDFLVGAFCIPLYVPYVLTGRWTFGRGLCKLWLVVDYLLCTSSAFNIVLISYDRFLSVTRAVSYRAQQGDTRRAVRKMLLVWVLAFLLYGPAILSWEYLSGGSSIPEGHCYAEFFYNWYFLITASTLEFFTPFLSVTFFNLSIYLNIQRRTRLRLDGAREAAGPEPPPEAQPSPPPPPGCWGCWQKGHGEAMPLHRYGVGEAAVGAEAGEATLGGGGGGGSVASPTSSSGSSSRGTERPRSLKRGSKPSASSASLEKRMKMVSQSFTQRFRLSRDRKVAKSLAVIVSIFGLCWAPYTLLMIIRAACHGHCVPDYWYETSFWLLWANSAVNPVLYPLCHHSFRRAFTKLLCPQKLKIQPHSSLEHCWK", "assay": "[3H]Nα-methylhistamine binding assay, membranes of HEK cells stably expressing hH3R", "protocol": "In vitro, ST-2223 was evaluated for its H3R affinity on membrane preparations of HEK-293 cells, which stably express the hH3R, by [^3H]N^α-methylhistamine displacement assays."}, "hD3R": {"target": "T2, hD3R (Homo sapiens, UniProt P35462)", "T2 construct": "expressed in transfected cells; host or cells: CHO cells (from the earlier reading's assay name)", "T2 sequence (P35462 whole entry)": "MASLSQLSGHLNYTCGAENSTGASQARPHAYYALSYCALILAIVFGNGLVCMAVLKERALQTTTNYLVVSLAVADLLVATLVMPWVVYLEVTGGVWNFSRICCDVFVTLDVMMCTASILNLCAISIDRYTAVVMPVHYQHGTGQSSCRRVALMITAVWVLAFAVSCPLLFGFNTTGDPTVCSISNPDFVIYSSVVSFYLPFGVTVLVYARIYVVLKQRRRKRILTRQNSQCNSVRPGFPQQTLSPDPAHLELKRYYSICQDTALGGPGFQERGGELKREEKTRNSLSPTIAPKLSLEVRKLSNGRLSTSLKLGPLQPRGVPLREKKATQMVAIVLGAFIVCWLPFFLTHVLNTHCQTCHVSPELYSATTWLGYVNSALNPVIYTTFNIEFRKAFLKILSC", "assay": "[3H]spiperone displacement assay, CHO cells expressing hD3Rs", "format": "binding", "details": "ratio of Ki values"}, "EeAChE": {"target": "EeAChE (Electrophorus electricus, UniProt O42275)", "sequence (O42275 24-633)": "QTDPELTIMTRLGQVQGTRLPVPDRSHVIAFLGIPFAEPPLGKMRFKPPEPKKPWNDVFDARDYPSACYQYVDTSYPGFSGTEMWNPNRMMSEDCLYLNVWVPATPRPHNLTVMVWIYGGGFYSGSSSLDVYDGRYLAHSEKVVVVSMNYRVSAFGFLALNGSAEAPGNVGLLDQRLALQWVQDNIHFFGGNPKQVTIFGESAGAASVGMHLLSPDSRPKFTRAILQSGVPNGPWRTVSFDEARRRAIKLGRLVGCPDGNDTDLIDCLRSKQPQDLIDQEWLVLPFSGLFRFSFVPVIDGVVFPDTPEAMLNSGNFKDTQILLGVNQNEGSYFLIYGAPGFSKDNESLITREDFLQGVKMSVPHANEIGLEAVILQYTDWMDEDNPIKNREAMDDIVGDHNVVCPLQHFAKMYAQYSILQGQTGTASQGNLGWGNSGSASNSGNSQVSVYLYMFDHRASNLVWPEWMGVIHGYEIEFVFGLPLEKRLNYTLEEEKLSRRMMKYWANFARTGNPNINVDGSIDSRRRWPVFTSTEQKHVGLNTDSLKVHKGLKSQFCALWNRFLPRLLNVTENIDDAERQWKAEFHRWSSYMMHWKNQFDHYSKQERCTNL", "assay": "Acetylcholine esterase inhibition (preliminary data)", "format": "biochemical, electric eel"}, "[1]": {"system": "dopamine levels in BTBR mice brain", "assay": "Dopamine levels by LC-MS/MS in brain regions", "format": "in vivo", "parameters": "key to Dopamine level: ↔: No significant alterations; ↑: significant increase; ↑↑: additional significant increase vs. ST-2223-treated mice; ↓: significant decrease", "details": "for Dopamine level: ST-2223 5 mg/kg i.p. chronic, vs VEH-treated BTBR mice", "procedure": "(§1) All the mice were randomly divided into nine groups of 5–7 mice each. The mice were injected intraperitonially once daily for 21 days with different doses of ST2223 (2.5, 5, and 10 mg/kg, i.p.), ARP 1 mg/kg or vehicle (1% DMSO in 0.9% normal saline). Group I, B6 mice were injected with vehicle served as control. Group II, BTBR mice were treated with vehicle. Groups III–V, BTBR mice received i.p. injections of different doses of ST2223 (2.5, 5, and 10 mg/kg, i.p.), respectively. Group VI, BTBR mice were injected with ARP (1 mg/kg, i.p.). For abrogation studies, Group VII, BTBR mice were treated with ST2223 (5 mg/kg, i.p.) along with RAM (10 mg/kg, i.p.). Group VIII, B6 mice were co-injected with vehicle and RAM (10 mg/kg, i.p). All treatments and vehicle (VEH) were administered 30–45 min before each behavioral test. The doses of these drugs were selected based on previous reports. Behavioral testing was performed between 9:00 am and 3:00 pm in an order randomized by group and in the following sequence: social approach test (SAT) and open field locomotor test (OFL). The chronic treatment started one week before the behavioral test and was continued for a total of 21 days as described above (Figure 7). Following behavioral tests, i.e., on day 21 of systemic treatment, five of the animals were sacrificed. The animals were deeply anesthetized with pentobarbital (40 mg/kg, i.p., body weight). To wash out the blood, cardiac perfusion was carried out using 0.01 M phosphate-buffered saline (PBS) at pH 7.4. The brains were quickly removed and placed on an ice plate, where the cerebellum, hippocampus, prefrontal cortex, and striatum were excised from the brain and snap-frozen in liquid nitrogen for later LC-MS/MS analysis.\n(§2) Perfusion was done on anesthetized animals using 1X PBS as described previously. Different regions of the brain were snap frozen. Frozen tissues were then weighed and homogenized in a 10-fold volume of acetonitrile. For 50mg of tissue, 500 µL of acetonitrile and Internal standard mix were added and homogenized. Homogenates were centrifuged at 15,000 rcf for 15 min at 4 °C. Tissue levels of dopamine, acetylcholine, histamine, and their metabolites were assessed using LC-MS/MS. LC-MS/MS analysis was conducted utilizing Waters BEH C18 COLUMN (2.1 × 100 mm, 1.7 µm) using Waters Acquity UPLC Binary Solvent Manager and FTN Sample Manager. The system was run in gradient mode with mobile phase A consisting of LC-MS GRADE WATER + 0.1% FORMIC ACID and mobile phase B consisting of 100% ACETONITRILE. Mobile phase was duly filtered through 0.2 µm filter and degassed ultrasonically for 15 min prior to use. Separations were performed at room temperature with 0.3 mL/min flow rate gradient starting with 90% of A for up to 0.5 min. Then, % of A was decreased gradually until it reached 20% at 2.5 min after which at 3 min %A was brought back to the initial condition and left for equilibration for 2 more minutes before the next injection (total 5 min run time). The injection volume was kept at 1 µL. Mass spectrometric detection was performed in multiple reaction monitoring (MRM) mode with positive electrospray ionization (ESI+) on Xevo TQS mass spectrometer (Waters, Milford, MA) equipped with an electrospray ionization (ESI) source and triple quadrupole mass analyzer. MRM transitions and instrument parameters were set by tuning the instrument by infusing each analyte. MRM transitions taken for quantification were 146.2 > 87.1 for Acetylcholine, 112.2 > 95.2 for Histamine, 154.1 > 137.2 for Dopamine, 150.2 > 91.3 for Acetylcholine D4, and […] > 99.3 for Histamine D4. Capillary Voltage, Source Offset, Source Temperature, De solvation Temperature, Cone Gas Flow, De solvation Gas Flow, Collision Gas Flow, Nebulizer Gas Flow were set as 3.0 (kV), 60.0 (V), 150 (°C), 550 (°C), 150 (L/Hr), 1000 (L/Hr), 0.13 (mL/min), and 7 (Bar), correspondingly. […]"}, "[2]": {"system": "acetylcholine levels in BTBR mice brain", "assay": "Acetylcholine levels by LC-MS/MS in brain regions", "format": "in vivo", "parameters": "key to Acetylcholine level: ↔: No significant alterations; ↑: significant increase; ↑↑: additional significant increase vs. ST-2223-treated mice; ↓: significant decrease", "details": "for Acetylcholine level: ST-2223 5 mg/kg i.p. chronic, vs VEH-treated BTBR mice", "procedure": "as §1, §2"}, "B6 control mice": {"system": "B6 control mice", "parameters": "method as in PMID 33669336", "details": "cited from earlier work"}},
  "data": [
    {"smiles": "COc1ccccc1N1CCN(CCCCNC(=O)c2ccc3cc(OCCCN4CCCCC4)ccc3c2)CC1", "note": "[ST-2223, N-(4-(4-(2-methoxyphenyl)piperazin-1-yl)butyl)-6-(3-(piperidin-1-yl)propoxy)-2-naphthamide]", "values": [
      {"measurement": "Ki", "setting": "hH3R", "result": 4.6, "unit": "nM"},
      {"measurement": "ratio of hD2Rs/hD3Rs", "setting": "hD3R", "result": 10},
      {"measurement": "inhibition of acetylcholine esterase enzyme (eeAChE), in words", "setting": "EeAChE", "result": "neglectful inhibition"},
      {"measurement": "Dopamine level", "setting": "[1]; Cerebellum", "result": "↓ ^b"},
      {"measurement": "Dopamine level", "setting": "[1]; Hippocampus", "result": "↔"},
      {"measurement": "Dopamine level", "setting": "[1]; Prefrontal cortex", "result": "↑ ^b"},
      {"measurement": "Dopamine level", "setting": "[1]; Striatum", "result": "↑ ^b"},
      {"measurement": "dopamine levels", "setting": "[1]; prefrontal cortex and striatum, ST-2223 5 mg/kg chronic, p < 0.05", "result": "significantly increased the dopamine levels in both regions"},
      {"measurement": "Acetylcholine level", "setting": "[2]; Hippocampus", "result": "↑ ^b"},
      {"measurement": "Acetylcholine level", "setting": "[2]; Prefrontal cortex", "result": "↑ ^b"},
      {"measurement": "Acetylcholine level", "setting": "[2]; Striatum", "result": "↑ ^b"},
      {"measurement": "acetylcholine levels", "setting": "[2]; prefrontal cortex, striatum and hippocampus, ST-2223 5 mg/kg chronic, p < 0.05", "result": "significant increase of acetylcholine levels"},
      {"measurement": "behavioral alterations in B6 control mice", "setting": "B6 control mice", "result": "no behavioral alterations"}
    ]}
  ]
}
